How the values were obtained:
[1] = test system: lymphocytes from lymph nodes of rats with EAM; test: Ex vivo proliferation assay with FTS (XTT, 96 h) on lymphocytes from EAM rats; format: cell-based, rat
Experimental: FTS was provided by Concordia Pharmaceuticals, Inc. (Ft. Lauderdale, Fla.). FTS was stored in chloroform, which was evaporated under a stream of nitrogen immediately before use. The powder was dissolved in DMSO. This solution was diluted with RPMI/10% FCS to yield a 10 mM drug stock solution containing 10% DMSO. A portion of this solution was applied to the cells at a dilution of 1:100. Ex Vivo Proliferation Assay with FTS Five (5) rats with EAM were sacrificed on day fourteen (14). Lymphocytes were taken from lymph nodes, prepared as described and 1×10^5 cells/well seeded in 96 microwell plates. Lymphocytes were incubated in the presence of Myosin 2.5 μg/ml or Concavalin A in the presence of 0, 3.125, 6.25, 12.5, and 25 μM FTS. Lymphocyte proliferation was evaluated using XTT reagent after 96 h of incubation. To investigate the effect of FTS on the proliferative capacity of lymphocytes from EAM rats against myosin ex vivo, lymph nodes were excised from the EAM rodent models fourteen (14) days following myosin immunizations. Thereafter, lymphocytes were incubated in the presence of (A) myosin (2.5 μg/ml) and (B) Concavalin A (4 μg/ml) with varying concentrations of FTS. […] The proliferation rate was reduced in the presence of 50 μM FTS ex vivo by 48% (FIG. 1B). Thus, proliferation of lymphocytes against potential cardiac epitopes may be attenuated following FTS administration.

[2] = test system: lymphocytes from lymph nodes of FTS-treated Lewis rats; test: Lymphocyte proliferation assay (XTT) on lymphocytes from FTS-treated myosin-immunized rats; format: in vivo, Lewis rat
Experimental: (§1) Porcine cardiac myosin (Sigma) was dissolved in PBS to a concentration of 0.4 μg/ul. Each rat was immunized by a single subcutaneous injection in both footpads on day 0 with an emulsion containing 1 mg of cardiac myosin with an equal volume of complete Freund's adjuvant containing 10.0 mg/mL of heat-killed Mycobacterium tuberculosis.
(§2) FTS was provided by Concordia Pharmaceuticals, Inc. (Ft. Lauderdale, Fla.). FTS was stored in chloroform, which was evaporated under a stream of nitrogen immediately before use. The powder was dissolved in absolute ethanol and diluted to the desired concentration in sterile PBS made basic with NaOH. Carrier solution (1000 μl) containing 1.35 mg of FTS (5 mg/kg) was injected intraperitoneally (i.p.) into each rat. Control solution was prepared at the same time, starting with PBS and absolute ethanol.
(§3) Two groups of rats were induced to develop EAM by immunization with cardiac myosin according to two protocols. In Protocol 1 (prevention regimen), FTS or PBS (control) was administered two (2) days prior to myosin immunization at a dose of 5 mg/kg (FTS pre-treatment before immunization). Thereafter, dosing was continued for a period of fourteen (14) days with administration of FTS or PBS occurring every other day. […]
Lymphocyte proliferation was evaluated using XTT reagent, according to standard procedures, after 96 h of incubation. […]

[3] = test system: IgG anti-myosin antibodies; test: IgG anti-myosin antibody levels in sera by ELISA; format: in vivo, Lewis rat; conditions: FTS 5 mg/kg i.p., p<0.05 vs control
Experimental: as §1, §2, §3

[4] = test system: experimental autoimmune myocarditis (EAM); test: Histopathology, H&E: severity of myocarditis (Dallas criteria) in EAM; format: in vivo, Lewis rat; conditions: FTS 5 mg/kg i.p., mean±SE, control group 1.61±0.23, p<0.05
Experimental: as §1, §2
Two groups of rats were induced to develop EAM by immunization with cardiac myosin according to two protocols. […]
Hearts were removed and fixed in 10% formalin, then embedded in paraffin. […] Every fifth section was examined for the presence of myocarditis by light microscopy, and was evaluated according to previously published criteria (the Dallas criteria) describing the severity of myocarditis as follows: severe (2)>50% of the heart involved; moderate (1)=10-50% involved; and minimal (0)=<10% involved, or normal. […]

[5] = test system: experimental autoimmune myocarditis (EAM); test: Histopathology, Masson trichrome: scar area (collagen deposition) in EAM; format: in vivo, Lewis rat; conditions: FTS 5 mg/kg i.p., vs control rats
Experimental: as §1, §2
Two groups of rats were induced to develop EAM by immunization with cardiac myosin according to two protocols. In Protocol 1 (prevention regimen), FTS or PBS (control) was administered two (2) days prior to myosin immunization at a dose of 5 mg/kg (FTS pre-treatment before immunization). […]
In order to evaluate the severity of scaring of the heart tissue, Masson trichrome staining was performed to assess collagen deposition in the three study groups. […] FIGS. 4B and C illustrate typical representations of the stained sections and quantitative analysis of the results.

[6] = test system: Ras and its downstream signaling effectors in lymphocytes; test: Western immunoblotting of total Ras, Erk, P-Erk, Akt, P-Akt in lymphocytes of treated rats; format: in vivo, Lewis rat
Experimental: (§4) Two groups of rats were induced to develop EAM by immunization with cardiac myosin according to two protocols. In Protocol 1 (prevention regimen), FTS or PBS (control) was administered two (2) days prior to myosin immunization at a dose of 5 mg/kg (FTS pre-treatment before immunization). Thereafter, dosing was continued for a period of fourteen (14) days with administration of FTS or PBS occurring every other day. In Protocol 2 (treatment regimen), FTS or PBS (control) was administered fourteen (14) days after porcine cardiac myosin immunization at a dose of 5 mg/kg (FTS post-EAM). Thereafter, dosing was continued for a period of seven (7) days with administration of FTS or PBS occurring every other day. Under both protocols, the Lewis rats were sacrificed at day 21 and hearts, lymph nodes and spleens were excised for histological and immunological analyses.
Lymphocytes were obtained from lymph nodes of FTS- and PBS-treated rats. The lymphocytes were homogenized in cold homogenization buffer containing protease inhibitors. Protein concentration was determined by the Bradford assay and samples containing 100 μg protein were used for determination of total Ras, total Erk, P-Erk, total Akt and P-Akt by Western immunoblotting using, respectively: pan-anti-Ras Ab (Ab03; Santa Cruz, Calif.), anti Erk Ab (Santa Cruz, Calif.), anti P-Erk Ab (Sigma), anti Akt Ab (Cell Signaling), and anti P-Akt Ab (Cell Signaling).
Enhanced chemiluminescence (ECL) and densitometric analysis were performed as detailed in R. Haklai, M. G. Weisz, G. Elad, et al., Biochemistry 37:1306-1314 (1998).

active GTP-bound Ras = test: Ras-GTP determination by glutathione S-transferase-RBD pull-down assay in lymphocytes of treated rats; format: in vivo, Lewis rat
Experimental: as §4
The lymphocytes were prepared as mentioned above. Samples containing 1.5 mg protein used for determination of levels of active GTP-bound Ras by the glutathione S-transferase-RBD pull-down assay followed by Western immunoblotting with pan-anti-Ras Ab as detailed in G. Elad-Sfadia, R. Haklai, E. Ballan et al., J. Biol. Chem. 277:37169-75 (2002).

[7] = test system: myocardial dysfunction following myosin-induced EAM; test: M-mode echocardiography after six weeks of FTS in EAM; format: in vivo, Lewis rat; conditions: FTS 5 mg/kg from 2 days before myosin immunization, every other day for six weeks; vs PBS-treated
Experimental: as §1, §2
Another group of experiments was designed to study the effects of FTS on prevention of myocardial dysfunction following myosin-induced EAM. Under this regimen, FTS or PBS was given two (2) days before myosin immunization, then every other day for six (6) weeks (when compromised heart function is expected). After six (6) weeks, M-mode echocardiography was performed as described in George J, Biner S, Keren P, Barshack I, Goldberg I, Sherez J, Levitski A, Keren G, Roth A. Exp Mol. Pathol. 74(3):314-8 2003. […]

[8] = human Phase I, doses up to 1800 mg/day; cited from earlier work
[9] = Protocol 1 FTS-treated rats vs control
[10] = Protocol 1 FTS-treated rats vs control animals

With CC(C)=CCC/C(C)=C/CC/C(C)=C/CSc1ccccc1C(=O)O [FTS, S-farnesylthiosalicylic acid] as the compound, how does the “reduction of proliferation rate of Concavalin A-treated lymphocytes” value ([1]; Concavalin A 4 μg/ml, 50 μM FTS ex vivo) read?
Its value is 48%.

And the “proliferation of Concavalin A-treated lymphocytes vs controls” value ([1]; Concavalin A 4 μg/ml, varying concentrations of FTS ex vivo)?
Its value is “dose-dependent reduction in proliferation”.

What about the “reduction of lymphocyte proliferation to myosin” value ([1]; myosin 2.5 μg/ml, FTS 25 and 50 μM, ex vivo, vs controls, p<0.05) of the same compound?
Its value is 79±7%.

And the “proliferation in response to non-specific mitogen Concavalin A” value ([2]; FTS-treated rats vs control animals (data not shown))?
Its value is “not diminished”.

What about the “decrease in lymphocyte proliferation in comparison with PBS” value ([2]; Protocol 1 (prevention): FTS 5 mg/kg i.p. from 2 days before myosin immunization, every other day for 14 days, p<0.05) of the same compound?
The value was roughly 35%.

And the “IgG anti-myosin antibody levels” value ([3]; Protocol 1 (prevention))?
Its value is “significantly reduced levels of IgG anti-myosin antibody”.

What about the “IgG anti-myosin antibody levels” value ([3]; Protocol 2 (treatment)) of the same compound?
Its value is “significantly reduced IgG anti-myosin antibody levels”.

And the “severity of myocarditis (myocarditis score)” value ([4]; Protocol 1 (prevention))?
Its value is 0.28±0.15 scale of 0-2 arbitrary units.

What about the “severity of myocarditis (myocarditis score)” value ([4]; Protocol 2 (treatment)) of the same compound?
The value was 0.33±0.24 scale of 0-2 arbitrary units.

And the “collagen deposition (scar formation)” value ([5]; Protocol 1 (prevention))?
Its value is “reduced collagen deposition”.

And the “collagen deposition (scar formation)” value ([5]; Protocol 2 (treatment))?
The value was “reduced collagen deposition”.

And the “phospho-Akt level in lymphocytes” value [6, 9]?
The value was “significant decrease”.

What about the “phospho-Erk level in lymphocytes” value [6, 9] of the same compound?
The value was “significant decrease”.

And the “total Akt level in lymphocytes” value [6, 9]?
Its value is “not affected”.

And the “total Erk level in lymphocytes” value [6, 9]?
The value was “not affected”.

And the “total Ras level in lymphocytes” value [6, 10]?
The value was “downregulated”.

And the “Ras-GTP level in lymphocytes” value (active GTP-bound Ras; [10])?
The value was “downregulated”.

What about the “ratio of Ras-GTP to total Ras” value (active GTP-bound Ras; lymphocytes of Protocol 1 FTS-treated rats) of the same compound?
Its value is “did not significantly alter”.

What about the “fractional shortening (systolic parameter)” value [7] of the same compound?
The value was “improved”.

What about the “left ventricular diastolic diameter” value [7] of the same compound?
The value was “improved”.

And the dose-limiting toxicities [8]?
Its dose-limiting toxicities is “no dose-limiting toxicities”.

— patent US20100144873A1, “TREATMENT OF MYOCARDITIS USING FTS” (RAMOT AT TEL-AVIV UNIVERSITY LTD., priority 2007, published 2010)
